The test relates to T1, secreted acid phosphatase (SAP).
T1 construct: native enzyme activity in cell-free culture supernatant
The experiment in a line: pNPP phosphatase assay, compound added directly to control cell-free supernatant, dose-dependent. The format is biochemical, Leishmania tarentolae.

Molecules are shown by their SMILES.

As for `COc1cc(/C=N/NC(=S)SC)cc(OC)c1O` [ZZ1-04], the IC50 lay within 60 to 80 µM.

(Values after publication PMC11676996, “Inhibitory Effects of Sulfur Derivatives on Leishmania tarentolae Cell Viability and Secreted Acid Phosphatase In Vitro” (Microorganisms, 2024).)
